Assay [1] relates to MC-38. Nature of the assay: Antitumor activity against mouse MC38 cells implanted in C57BL/6J mouse assessed as tumor growth inhibition at 10 mg/kg, po BID measured after 4 weeks. It counts as functional. The conditions noted are these: MC-38, 672 h, read-out: TGI.
Assay [2] deals with MC-38. Nature of the assay: Antitumor activity against mouse MC38 cells implanted in C57BL/6J mouse assessed as tumor weight inhibition rate at 10 mg/kg, po BID measured after 4 weeks. Further details: scale not given: the % may be the effect or the level left. It counts as functional.
Assay [3] deals with MC-38. Description: Synergistic antitumor activity against mouse MC38 cells implanted in C57BL/6J mouse assessed as tumor growth inhibition at 1 mg/kg, po bid measured after 4 weeks in presence of 5 mg/kg anti-PD1 and measured twice a week. It counts as functional. The conditions noted are these: MC-38, 672 h, read-out: TGI.
For assay [4], the system named is MC-38. Nature of the assay: Antitumor activity against mouse MC38 cells implanted in C57BL/6J mouse assessed as reduction in tumor weight at 10 mg/kg, po BID administered for 3 to 4 weeks (reference value: 1.79 +/- 0.24 g). It counts as functional. The conditions noted are these: time 3-4 weeks.
Assay [5] concerns MC-38. Nature of the assay: Synergistic antitumor activity against mouse MC38 cells implanted in C57BL/6J mouse assessed as reduction in tumor weight at 1 mg/kg, po bid administered for 3 to 4 weeks in presence of 5 mg/kg anti-PD1 and measured twice a week (reference value: 1.79 +/- 0.24 g). It counts as functional. The conditions noted are these: time 3-4 weeks.
The test system of assay [6] is MC-38. Description: Synergistic antitumor activity against mouse MC38 cells implanted in C57BL/6J mouse assessed as reduction in tumor volume at 1 mg/kg, po bid administered for 3 to 4 weeks in presence of 5 mg/kg anti-PD1 and measured twice a week (reference value: 1549.22 +/- 217.92 mm3). The assay is classed as functional. The conditions noted are these: time 3-4 weeks.

In assay [7] the test system is MC-38. Description: Antitumor activity against mouse MC38 cells implanted in C57BL/6J mouse assessed as tumor weight inhibition rate at 1 mg/kg, po BID measured after 4 weeks. The assay is classed as functional. Further details: scale not given: the % may be the effect or the level left.
Assay [8] has as its system MC-38. Nature of the assay: Synergistic antitumor activity against mouse MC38 cells implanted in C57BL/6J mouse assessed as tumor growth inhibition at 10 mg/kg, po bid measured after 4 weeks in presence of 5 mg/kg anti-PD1 and measured twice a week. The assay is classed as functional. The conditions noted are these: MC-38, 672 h, read-out: TGI.
Assay [9] concerns MC-38. Nature of the assay: Synergistic antitumor activity against mouse MC38 cells implanted in C57BL/6J mouse assessed as tumor weight inhibition rate at 1 mg/kg, po bid measured after 4 weeks in presence of 5 mg/kg anti-PD1 and measured twice a week. The assay is classed as functional. Also on record: scale not given: the % may be the effect or the level left.
Assay [10] has as its system MC-38. Nature of the assay: Antitumor activity against mouse MC38 cells implanted in C57BL/6J mouse assessed as reduction in tumor volume at 1 mg/kg, po BID administered for 3 to 4 weeks (reference value: 1549.22 +/- 217.92 mm3). The assay is classed as functional. The conditions noted are these: time 3-4 weeks.
Assay [11] deals with MC-38. Nature of the assay: Antitumor activity against mouse MC38 cells implanted in C57BL/6J mouse assessed as reduction in tumor volume at 10 mg/kg, po BID administered for 3 to 4 weeks (reference value: 1549.22 +/- 217.92 mm3). It counts as functional. The conditions noted are these: time 3-4 weeks.
Assay [12] deals with MC-38. Nature of the assay: Synergistic antitumor activity against mouse MC38 cells implanted in C57BL/6J mouse assessed as reduction in tumor volume at 10 mg/kg, po bid administered for 3 to 4 weeks in presence of 5 mg/kg anti-PD1 and measured twice a week (reference value: 1549.22 +/- 217.92 mm3). The conditions noted are these: time 3-4 weeks. The assay is classed as functional.

The test system of assay [13] is MC-38. Description: Synergistic antitumor activity against mouse MC38 cells implanted in C57BL/6J mouse assessed as reduction in tumor weight at 10 mg/kg, po bid administered for 3 to 4 weeks in presence of 5 mg/kg anti-PD1 and measured twice a week (reference value: 1.79 +/- 0.24 g). It counts as functional. The conditions noted are these: time 3-4 weeks.
For assay [14], the system named is MC-38. Nature of the assay: Antitumor activity against mouse MC38 cells implanted in C57BL/6J mouse assessed as tumor growth inhibition at 1 mg/kg, po BID measured after 4 weeks. The assay is classed as functional. The conditions noted are these: MC-38, 672 h, read-out: TGI.
The subject of assay [15] is MC-38. Nature of the assay: Antitumor activity against mouse MC38 cells implanted in C57BL/6J mouse assessed as reduction in tumor weight at 1 mg/kg, po BID administered for 3 to 4 weeks (reference value: 1.79 +/- 0.24 g). The assay is classed as functional. The conditions noted are these: time 3-4 weeks.
Assay [16] concerns MC-38. Description: Synergistic antitumor activity against mouse MC38 cells implanted in C57BL/6J mouse assessed as tumor weight inhibition rate at 10 mg/kg, po bid measured after 4 weeks in presence of 5 mg/kg anti-PD1 and measured twice a week. It counts as functional. Also on record: scale not given: the % may be the effect or the level left.
The target in assay [17] is Protein cereblon/Mitogen-activated protein kinase kinase kinase kinase 1 (Homo sapiens, UniProt Q92918+Q96SW2). Nature of the assay: PROTAC activity at CRBN/HPK1 in human Jurkat cells incubated for 24 hrs by Western blotting analysis. The assay is classed as cell-based. Background: Immunoblotting shows a protein as a band on a membrane.
Sequence of Protein cereblon/Mitogen-activated protein kinase kinase kinase kinase 1 (Q92918 whole entry): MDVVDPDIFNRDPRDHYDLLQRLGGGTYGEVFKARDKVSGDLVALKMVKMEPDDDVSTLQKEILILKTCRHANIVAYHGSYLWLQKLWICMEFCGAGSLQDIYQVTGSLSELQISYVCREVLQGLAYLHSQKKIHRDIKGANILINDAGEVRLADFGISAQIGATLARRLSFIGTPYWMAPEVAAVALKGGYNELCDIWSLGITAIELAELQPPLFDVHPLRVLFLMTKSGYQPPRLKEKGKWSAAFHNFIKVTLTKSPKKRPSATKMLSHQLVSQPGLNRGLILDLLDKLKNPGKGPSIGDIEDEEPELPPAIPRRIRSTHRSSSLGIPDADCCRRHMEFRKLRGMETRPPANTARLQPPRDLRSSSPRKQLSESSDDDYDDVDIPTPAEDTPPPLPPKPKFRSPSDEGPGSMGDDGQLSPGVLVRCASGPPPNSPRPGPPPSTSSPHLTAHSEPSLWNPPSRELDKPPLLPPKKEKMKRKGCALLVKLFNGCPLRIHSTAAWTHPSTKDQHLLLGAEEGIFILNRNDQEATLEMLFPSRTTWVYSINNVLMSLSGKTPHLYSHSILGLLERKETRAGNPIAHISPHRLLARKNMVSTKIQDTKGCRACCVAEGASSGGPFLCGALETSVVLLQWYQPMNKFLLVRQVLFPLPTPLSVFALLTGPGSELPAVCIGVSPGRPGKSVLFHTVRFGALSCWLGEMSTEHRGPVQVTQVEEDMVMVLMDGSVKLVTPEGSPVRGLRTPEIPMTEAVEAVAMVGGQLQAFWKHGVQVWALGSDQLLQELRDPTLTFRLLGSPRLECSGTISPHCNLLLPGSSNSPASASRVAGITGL
Sequence of Protein cereblon/Mitogen-activated protein kinase kinase kinase kinase 1 (Q96SW2 whole entry): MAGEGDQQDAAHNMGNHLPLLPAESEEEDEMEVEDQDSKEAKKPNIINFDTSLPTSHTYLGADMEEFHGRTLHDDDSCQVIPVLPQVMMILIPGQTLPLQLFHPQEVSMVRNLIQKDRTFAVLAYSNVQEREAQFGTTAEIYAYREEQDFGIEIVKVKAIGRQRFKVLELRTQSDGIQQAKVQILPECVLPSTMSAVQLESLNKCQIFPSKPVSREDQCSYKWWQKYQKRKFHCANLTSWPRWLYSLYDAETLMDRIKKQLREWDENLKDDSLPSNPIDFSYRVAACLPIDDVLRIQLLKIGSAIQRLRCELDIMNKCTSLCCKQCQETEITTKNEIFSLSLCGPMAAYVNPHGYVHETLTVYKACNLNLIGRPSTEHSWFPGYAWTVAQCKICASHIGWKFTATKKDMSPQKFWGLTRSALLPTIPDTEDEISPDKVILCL
Assay [18] has as its target Mitogen-activated protein kinase kinase kinase kinase 1 (Homo sapiens, UniProt Q92918). Description: Induction of HPK1 (unknown origin) degradation.

The structures appear in SMILES notation.

Sequence of Mitogen-activated protein kinase kinase kinase kinase 1 (Q92918 whole entry): as the sequence (Q92918 whole entry) above

On to `CCC(CC)n1cc(Oc2nc(-c3cc(C)c(C(=O)NCCN4CC[C@@H](F)C4)c(C)c3)cnc2N)cn1`, for which the figures for the inhibition in vivo at 10 mg/kg with MC-38 [1] and in the assay on MC-38 [8] were -22.4% and 72.6%, respectively. For the same compound, the Activity with MC-38 [2] is listed as -26.45%; in the assay with MC-38 [4], 2.27 g; with MC-38 [5], 0.48 g; in the assay on MC-38 [6] it was 367.21 mm3; in the assay on MC-38 [7], -13.75%; with MC-38 [9], 73.27%. The Activity in the assay on MC-38 [10] is 1349.36 mm3; with MC-38 [11], 1896.55 mm3; in the assay with MC-38 [12] it was 423.84 mm3; with MC-38 [13], 0.57 g; in the assay on MC-38 [15], 2.04 g; in the assay with MC-38 [16], 68.3%. In addition, the inhibition in vivo at 1 mg/kg was 76.3% in the assay on MC-38 [3] and 12.9% in the assay on MC-38 [14].
For `CN1CCC(n2cc(-c3c[nH]c4ncc(-c5ccc(N6CCC(CC7CCN(C(=O)c8ccc(Cl)c(N9CCC(=O)NC9=O)c8)CC7)CC6)nc5)nc34)cn2)CC1`, the values for the DC50 in [17] and in assay [18] were 21.4 nM and 1.8 nM, respectively.

The values above are taken from ChEMBL document CHEMBL6092203, “Discovery of Novel PROTAC-Based HPK1 Degraders with High Potency and Selectivity for Cancer Immunotherapy” (J Med Chem, 2024).
